# Measurements from patent publication US8962659B2, “Phenoxyethyl piperidine compounds” (Eli Lilly and Company, priority 2012, dated 2015).
# Structures can show the parent of a compound that is named as a salt.
# Experiments:
# rat EP4 = rat EP4 (Rattus norvegicus (Rat), UniProt P43114); assay: In vitro rat EP4 functional antagonist activity (PGE2-stimulated cAMP, HTRF, HEK293); assay type: cell-based; settings: inhibition of PGE2 (EC80)-stimulated cAMP, read-out: IC50 measured at rat EP4
# Description: Rat EP4 cDNA (Genebank Accession# NM—03276) is cloned into pcDNA 3.1 vector and subsequently transfected in HEK293 cells for receptor expression. Rat EP4 stable clone is scaled up and then frozen down as cell bank for future compounds screening. To test EP4 antagonist compounds in rEP4 cells, thaw the frozen cells and then resuspend cells in cAMP assay buffer. […] The cells are plated into 96-well half area flat-bottom polystyrene black plates (Costar 3694). […] Then diluted compounds are added into cAMP assay buffer which contains PGE2 (Cayman 14010, in a concentration predetermined to produce an EC80) at ratio of DMSO/buffer at 1/100. The cells are treated with compounds in the presence of PGE2 (EC80 concentration) for 30 minutes at room temperature. The cAMP levels generated from the cells are quantified by a cAMP HTRF assay kit (Cisbio 62AM4PEC). The plates are read on an EnVision plate reader using HTRF optimized protocol (PerkinElmer). IC50s are calculated using Graphpad Prism (v. 4) nonlinear regression, sigmoidal dose response curve fitting.
# human EP3 (isoform VI) = human EP3 (isoform VI) (Homo sapiens (Human), UniProt P43115); assay: In vitro binding to human EP3 ([3H]-PGE2 displacement, membranes); settings: [3H]-PGE2, HEK293 membranes; read-out: hEP3, Ki
# Chain of human EP3 (isoform VI) (P43115 other isoform, or with tags, fused parts or gaps isoform P43115-4): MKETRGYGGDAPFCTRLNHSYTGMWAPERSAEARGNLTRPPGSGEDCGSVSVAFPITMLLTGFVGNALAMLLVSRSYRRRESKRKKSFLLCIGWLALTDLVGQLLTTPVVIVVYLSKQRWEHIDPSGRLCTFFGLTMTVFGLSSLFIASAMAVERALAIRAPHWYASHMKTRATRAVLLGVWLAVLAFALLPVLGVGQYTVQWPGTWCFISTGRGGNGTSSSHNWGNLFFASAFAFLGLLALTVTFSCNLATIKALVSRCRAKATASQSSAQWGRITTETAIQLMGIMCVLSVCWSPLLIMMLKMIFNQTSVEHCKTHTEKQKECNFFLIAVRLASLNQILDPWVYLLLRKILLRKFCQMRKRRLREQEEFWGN
# Description: (§1) hEP1 and hEP4 membranes are prepared from recombinant HEK293 cells stably expressing the human EP1 (Genbank accession number AY275470) or EP4 (Genbank accession number AY429109) receptors. hEP2 and hEP3 membranes are prepared from HEK293 cells transiently transfected with EP2 (Genbank accession number AY275471) or EP3 (isoform VI: Genbank accession number AY429108) receptor plasmids. Frozen cell pellets are homogenized in homogenization buffer using a Teflon/glass homogenizer. Membrane protein is aliquoted and quick frozen on dry ice prior to storage at -80° C. Homogenization buffer contained 10 mM Tris-HCl, pH 7.4, 250 mM sucrose, 1 mM EDTA, 0.3 mM indomethacin and plus CompleteTM, with EDTA, obtained from Roche Molecular Biochemicals (Catalog Number 1 697 498). Kd values for [3H]-PGE2 binding to each receptor are determined by saturation binding studies or homologous competition. […] Nonspecific binding is calculated by comparing binding in the presence and absence of 2 μM of PGE2. The membranes are harvested by filtration (TomTek harvester), washed 4 times with cold buffer (10 mM MES pH 6.0 with KOH, 10 mM MgCl2), dried in a 60° C. oven, and the radioactivity is quantified as counts per minute (CPM) using a TopCount detector. Percent specific binding is calculated as the percent of the binding in the absence of any inhibitor, corrected for binding in the presence of 2 μM of PGE2.
# human EP1 = human EP1 (Homo sapiens (Human), UniProt P34995); assay: In vitro binding to human EP1 ([3H]-PGE2 displacement, membranes); settings: [3H]-PGE2, HEK293 membranes; read-out: hEP1, Ki
# Chain of human EP1 (P34995 whole entry): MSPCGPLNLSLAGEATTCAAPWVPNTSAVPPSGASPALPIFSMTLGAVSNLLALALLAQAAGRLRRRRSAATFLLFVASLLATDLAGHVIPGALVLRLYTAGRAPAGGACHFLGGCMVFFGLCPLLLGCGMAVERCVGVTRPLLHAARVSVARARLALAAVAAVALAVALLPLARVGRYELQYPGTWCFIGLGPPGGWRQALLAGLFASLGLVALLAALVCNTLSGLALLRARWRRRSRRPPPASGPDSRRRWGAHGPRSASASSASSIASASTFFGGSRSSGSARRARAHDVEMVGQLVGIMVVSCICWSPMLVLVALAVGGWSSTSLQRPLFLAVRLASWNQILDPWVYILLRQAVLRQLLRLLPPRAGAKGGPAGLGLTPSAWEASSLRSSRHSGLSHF
# Description: as §1
# human EP2 = human EP2 (Homo sapiens (Human), UniProt P43116); assay: In vitro binding to human EP2 ([3H]-PGE2 displacement, membranes); settings: [3H]-PGE2, HEK293 membranes; n = 3; read-out: hEP2, Ki
# Chain of human EP2 (P43116 whole entry): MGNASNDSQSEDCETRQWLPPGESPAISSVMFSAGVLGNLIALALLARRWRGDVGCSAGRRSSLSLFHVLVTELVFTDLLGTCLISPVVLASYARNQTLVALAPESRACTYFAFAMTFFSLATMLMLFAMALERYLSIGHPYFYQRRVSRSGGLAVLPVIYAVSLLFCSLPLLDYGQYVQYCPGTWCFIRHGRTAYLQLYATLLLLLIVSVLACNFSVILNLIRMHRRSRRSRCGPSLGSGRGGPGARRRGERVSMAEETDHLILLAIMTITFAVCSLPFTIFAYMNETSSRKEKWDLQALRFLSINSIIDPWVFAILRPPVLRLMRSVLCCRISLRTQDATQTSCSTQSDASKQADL
# Description: as §1
# Chain of rat EP4 (P43114 whole entry, canonical isoform): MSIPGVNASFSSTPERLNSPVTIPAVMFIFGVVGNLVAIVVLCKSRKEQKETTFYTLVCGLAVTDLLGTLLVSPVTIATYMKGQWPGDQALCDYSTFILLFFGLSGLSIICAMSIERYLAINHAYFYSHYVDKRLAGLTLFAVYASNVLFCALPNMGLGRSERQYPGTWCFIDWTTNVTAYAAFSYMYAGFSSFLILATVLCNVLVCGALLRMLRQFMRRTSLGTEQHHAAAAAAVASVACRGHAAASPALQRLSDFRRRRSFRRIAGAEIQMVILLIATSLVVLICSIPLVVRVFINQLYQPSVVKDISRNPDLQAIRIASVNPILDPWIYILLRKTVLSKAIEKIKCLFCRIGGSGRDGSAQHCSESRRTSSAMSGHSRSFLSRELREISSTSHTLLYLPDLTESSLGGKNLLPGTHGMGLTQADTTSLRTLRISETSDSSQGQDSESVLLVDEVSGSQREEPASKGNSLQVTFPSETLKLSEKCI
smiles,measurement,setting,value
"C[C@H](NC(=O)[C@H]1CCCCN1CCOc1ccccc1)c1ccc(C(=O)O)cc1 [Example 1, 4-[(1S)-1-[[(2R)-1-(2-phenoxyethyl)piperidine-2-carbonyl]amino]ethyl]benzoic acid hydrochloride]",IC50,rat EP4,15 nM
same,Ki,human EP3 (isoform VI),> 14000 nM
same,Ki,human EP1,> 17500 nM
same,Ki,human EP2,1550 ± 1860 nM
